Data taken from ChEMBL document CHEMBL4138123, “Design, synthesis and biological evaluation of novel pyrazolochalcones as potential modulators of PI3K/Akt/mTOR pathway and inducers of apoptosis in breast cancer cells” (Eur J Med Chem, 2017).

Columns and labels:
T47D = test: Cytotoxicity against human T47D cells assessed as cell growth at 10 uM after 48 hrs by sulforhodamine B assay relative to control; assay type: functional; conditions: read-out: Activity
RPMI-8226 = test: Cytotoxicity against human RPMI8226 cells assessed as cell growth at 100 uM after 48 hrs by sulforhodamine B assay relative to control; assay type: functional; conditions: RPMI-8226, 48 h, read-out: Activity
NCI/ADR-RES [1] = test: Cytotoxicity against human NCI/ADR-RES cells assessed as cell growth at 100 uM after 48 hrs by sulforhodamine B assay relative to control; assay type: functional; conditions: read-out: Activity
SR = test: Cytotoxicity against human SR cells assessed as cell growth at 100 uM after 48 hrs by sulforhodamine B assay relative to control; assay type: functional; conditions: read-out: Activity
A549 = test: Cytotoxicity against human A549/ATCC cells assessed as growth inhibition after 48 hrs by sulforhodamine B assay; assay type: functional; conditions: A549, 48 h
MCF7 [2] = test: Cytotoxicity against human MCF7 cells assessed as growth inhibition after 48 hrs by MTT assay; assay type: functional, cell-based; conditions: MCF7, 48 h
MDA-MB-468 [3] = test: Cytotoxicity against human MDA-MB-468 cells assessed as cell growth at 10 uM after 48 hrs by sulforhodamine B assay relative to control; assay type: functional; conditions: MDA-MB-468, 48 h, read-out: Activity
Malme-3M [4] = test: Cytotoxicity against human MALME-3M cells assessed as cell growth at 100 uM after 48 hrs by sulforhodamine B assay relative to control; assay type: functional; conditions: read-out: Activity
U-251 = test: Cytotoxicity against human U251 cells assessed as cell growth at 0.01 uM after 48 hrs by sulforhodamine B assay relative to control; assay type: functional; conditions: U-251, 48 h, read-out: Activity
RXF 393 [5] = test: Cytotoxicity against human RXF393 cells assessed as cell growth at 100 uM after 48 hrs by sulforhodamine B assay relative to control; assay type: functional; conditions: RXF 393, 48 h, read-out: Activity
DU-145 = test: Cytotoxicity against human DU145 cells assessed as cell growth at 10 uM after 48 hrs by sulforhodamine B assay relative to control; assay type: functional; conditions: DU-145, 48 h, read-out: Activity
LOX IMVI = test: Cytotoxicity against human LOXIMVI cells assessed as cell growth at 10 uM after 48 hrs by sulforhodamine B assay relative to control; assay type: functional; conditions: read-out: Activity
SN12C = test: Cytotoxicity against human SN12C cells assessed as cell growth at 10 uM after 48 hrs by sulforhodamine B assay relative to control; assay type: functional; conditions: read-out: Activity
HCT-116 [6] = test: Cytotoxicity against human HCT116 cells assessed as cell growth at 1 uM after 48 hrs by sulforhodamine B assay relative to control; assay type: functional; conditions: HCT-116, 48 h, read-out: Activity
SNB-19 [7] = test: Cytotoxicity against human SNB19 cells assessed as cell growth at 100 uM after 48 hrs by sulforhodamine B assay relative to control; assay type: functional; conditions: SNB-19, 48 h, read-out: Activity
K562 = test: Cytotoxicity against human K562 cells assessed as cell growth at 1 uM after 48 hrs by sulforhodamine B assay relative to control; assay type: functional; conditions: K562, 48 h, read-out: Activity
BT-549 = test: Cytotoxicity against human BT549 cells assessed as cell growth at 1 uM after 48 hrs by sulforhodamine B assay relative to control; assay type: functional; conditions: BT-549, 48 h, read-out: Activity
HCT-116 [8] = test: Cytotoxicity against human HCT116 cells assessed as cell growth at 0.1 uM after 48 hrs by sulforhodamine B assay relative to control; assay type: functional; conditions: HCT-116, 48 h, read-out: Activity
NCI/ADR-RES [9] = test: Cytotoxicity against human NCI/ADR-RES cells assessed as cell growth at 0.1 uM after 48 hrs by sulforhodamine B assay relative to control; assay type: functional; conditions: read-out: Activity
SK-OV-3 [10] = test: Cytotoxicity against human SKOV3 cells assessed as growth inhibition after 48 hrs by sulforhodamine B assay; assay type: functional; conditions: SK-OV-3, 48 h
NCI-H460 = test: Cytotoxicity against human NCI-H460 cells assessed as cell growth at 100 uM after 48 hrs by sulforhodamine B assay relative to control; assay type: functional; conditions: NCI-H460, 48 h, read-out: Activity
RXF 393 [11] = test: Cytotoxicity against human RXF393 cells assessed as cell growth at 0.1 uM after 48 hrs by sulforhodamine B assay relative to control; assay type: functional; conditions: RXF 393, 48 h, read-out: Activity
Malme-3M [12] = test: Cytotoxicity against human MALME-3M cells assessed as cell growth at 0.01 uM after 48 hrs by sulforhodamine B assay relative to control; assay type: functional; conditions: read-out: Activity
COLO 205 [13] = test: Cytotoxicity against human COLO205 cells assessed as growth inhibition after 48 hrs by sulforhodamine B assay; assay type: functional; conditions: COLO 205, 48 h
SK-OV-3 [14] = test: Cytotoxicity against human SKOV3 cells assessed as cell growth at 1 uM after 48 hrs by sulforhodamine B assay relative to control; assay type: functional; conditions: SK-OV-3, 48 h, read-out: Activity
MDA-MB-468 [15] = test: Cytotoxicity against human MDA-MB-468 cells assessed as cell growth at 0.1 uM after 48 hrs by sulforhodamine B assay relative to control; assay type: functional; conditions: MDA-MB-468, 48 h, read-out: Activity
SNB-19 [16] = test: Cytotoxicity against human SNB19 cells assessed as cell growth at 1 uM after 48 hrs by sulforhodamine B assay relative to control; assay type: functional; conditions: SNB-19, 48 h, read-out: Activity
KM12 [17] = test: Cytotoxicity against human KM12 cells assessed as cell growth at 1 uM after 48 hrs by sulforhodamine B assay relative to control; assay type: functional; conditions: KM12, 48 h, read-out: Activity
UO-31 = test: Cytotoxicity against human UO31 cells assessed as cell growth at 10 uM after 48 hrs by sulforhodamine B assay relative to control; assay type: functional; conditions: UO-31, 48 h, read-out: Activity
MDA-MB-435 = test: Cytotoxicity against human MDA-MB-435 cells assessed as cell growth at 10 uM after 48 hrs by sulforhodamine B assay relative to control; assay type: functional; conditions: MDA-MB-435, 48 h, read-out: Activity
MCF7 [18] = test: Cytotoxicity against human MCF7 cells assessed as cell growth at 10 uM after 48 hrs by sulforhodamine B assay relative to control; assay type: functional; conditions: MCF7, 48 h, read-out: Activity
UACC-257 = test: Cytotoxicity against human UACC257 cells assessed as growth inhibition after 48 hrs by sulforhodamine B assay; assay type: functional; conditions: UACC-257, 48 h
KM12 [19] = test: Cytotoxicity against human KM12 cells assessed as cell growth at 100 uM after 48 hrs by sulforhodamine B assay relative to control; assay type: functional; conditions: KM12, 48 h, read-out: Activity
COLO 205 [20] = test: Cytotoxicity against human COLO205 cells assessed as cell growth at 10 uM after 48 hrs by sulforhodamine B assay relative to control; assay type: functional; conditions: COLO 205, 48 h, read-out: Activity
NCI-H522 = test: Cytotoxicity against human NCI-H522 cells assessed as growth inhibition after 48 hrs by sulforhodamine B assay; assay type: functional; conditions: NCI-H522, 48 h
KM12 [21] = test: Cytotoxicity against human KM12 cells assessed as cell growth at 0.01 uM after 48 hrs by sulforhodamine B assay relative to control; assay type: functional; conditions: KM12, 48 h, read-out: Activity

Row | SMILES | growth at 10 µM (T47D) [%] | growth at 100 µM (RPMI-8226) [%] | growth at 100 µM (NCI/ADR-RES [1]) [%] | growth at 100 µM (SR) [%] | LC50 (concentration giving 50% net cell kill) (A549) [µM] | IC50 (MCF7 [2]) [µM] | growth at 10 µM (MDA-MB-468 [3]) [%] | growth at 100 µM (Malme-3M [4]) [%] | growth at 0.01 µM (U-251) [%] | growth at 100 µM (RXF 393 [5]) [%] | growth at 10 µM (LOX IMVI) [%] | growth at 10 µM (SN12C) [%] | growth at 1 µM (HCT-116 [6]) [%] | growth at 100 µM (SNB-19 [7]) [%] | growth at 1 µM (K562) [%] | growth at 1 µM (BT-549) [%] | growth at 0.1 µM (HCT-116 [8]) [%] | growth at 0.1 µM (NCI/ADR-RES [9]) [%] | LC50 (SK-OV-3 [10]) [µM] | TGI (SK-OV-3 [10]) [µM] | other results
1 | COc1ccc(C(=O)/C=C/c2cc(-c3cc(OC)c(OC)c(OC)c3)n[nH]2)cc1 | 1 | -34 | -6 | -5 | > 100 | 0.81 | -92 | -2 | 97 | -93 | -92 | -69 | 72 | -6 | 89 | 93 | 102 | 97 | > 100 | 20.5 | growth at 10 µM (DU-145): -93%; growth at 100 µM (NCI-H460): -62%; growth at 0.1 µM (RXF 393 [11]): 90%; growth at 0.01 µM (Malme-3M [12]): 95%; LC50 (COLO 205 [13]): 6.06 µM; TGI (COLO 205 [13]): 3.24 µM; growth at 1 µM (SK-OV-3 [14]): 98%; growth at 0.1 µM (MDA-MB-468 [15]): 88%; growth at 1 µM (SNB-19 [16]): 79%; growth at 1 µM (KM12 [17]): 83%; growth at 10 µM (UO-31): -93%; growth at 10 µM (MDA-MB-435): -30%; growth at 10 µM (MCF7 [18]): -64%; TGI (UACC-257): 3.74 µM; growth at 100 µM (KM12 [19]): -74%; growth at 10 µM (COLO 205 [20]): -90%; LC50 (NCI-H522): 6.97 µM; TGI (NCI-H522): 3.2 µM; growth at 0.01 µM (KM12 [21]): 99%
2 | COc1cc(-c2cc(/C=C/C(=O)c3ccc(F)c(F)c3)[nH]n2)cc(OC)c1OC | 9 | -36 | -5 | 8 | > 100 | 2.5 | -2 | -31 | 97 | -61 | 8 | 15 | 113 | 22 | 102 | 92 | 102 | 98 | > 100 | 58.6 | TGI (A549): 9.9 µM; growth at 100 µM (NCI-H460): -54%; growth at 0.1 µM (RXF 393 [11]): 96%; growth at 0.01 µM (Malme-3M [12]): 93%; LC50 (COLO 205 [13]): 6 µM; TGI (COLO 205 [13]): 3.19 µM; growth at 1 µM (SK-OV-3 [14]): 90%; growth at 0.1 µM (MDA-MB-468 [15]): 94%; growth at 1 µM (SNB-19 [16]): 82%; growth at 1 µM (KM12 [17]): 95%; growth at 10 µM (UO-31): 3%; growth at 10 µM (MDA-MB-435): 5%; growth at 10 µM (MCF7 [18]): 2%; LC50 (UACC-257): > 100 µM; TGI (UACC-257): 6.28 µM; growth at 100 µM (KM12 [19]): -48%; growth at 10 µM (COLO 205 [20]): -90%; LC50 (NCI-H522): 65.2 µM; TGI (NCI-H522): 4.48 µM; growth at 0.01 µM (KM12 [21]): 96%
3 | COc1cc(C(=O)/C=C/c2cc(-c3cc(OC)c(OC)c(OC)c3)n[nH]2)cc(OC)c1OC | -82 | -26 | -24 | 7 | 59.2 | 0.43 | -90 | -94 | 96 | -98 | -95 | -86 | 70 | -98 | 94 | 85 | 104 | 106 | 33.4 | 11.1 | TGI (A549): 12.1 µM; growth at 100 µM (NCI-H460): -55%; growth at 0.1 µM (RXF 393 [11]): 88%; growth at 0.01 µM (Malme-3M [12]): 100%; LC50 (COLO 205 [13]): 5.59 µM; TGI (COLO 205 [13]): 3.13 µM; growth at 1 µM (SK-OV-3 [14]): 96%; growth at 0.1 µM (MDA-MB-468 [15]): 84%; growth at 1 µM (SNB-19 [16]): 82%; growth at 1 µM (KM12 [17]): 79%; growth at 10 µM (UO-31): -95%; growth at 10 µM (MDA-MB-435): -90%; growth at 10 µM (MCF7 [18]): -85%; LC50 (UACC-257): 5.71 µM; TGI (UACC-257): 2.99 µM; growth at 100 µM (KM12 [19]): -81%; growth at 10 µM (COLO 205 [20]): -100%; LC50 (NCI-H522): 4.22 µM; TGI (NCI-H522): 1.7 µM; growth at 0.01 µM (KM12 [21]): 101%
